Patent US7326718B2, “8-Substituted imidazopyridines” (Altana Pharma AG, priority 2002, dated 2008)

Tests used:
[1] = tested on: pentagastrin-stimulated acid secretion of the perfused rat stomach; experiment: Secretion-inhibiting action on the perfused rat stomach (pentagastrin-stimulated acid secretion, intraduodenal administration in vivo); conditions: dose 1 μmol/kg i.d., anaesthetized female CD rat, pentagastrin-stimulated (1 μg/kg i.v. infusion)
Text: Testing of the Secretion-Inhibiting Action on the Perfused Rat Stomach
In Table A which follows, the influence of the compounds according to the invention on the pentagastrin-stimulated acid secretion of the perfused rat stomach after intraduodenal administration in vivo is shown.
The abdomen of anaesthetized rats (CD rat, female, 200-250 g; 1.5 g/kg i.m. urethane) was opened after tracheotomy by a median upper abdominal incision and a PVC catheter was fixed transorally in the oesophagus and another via the pylorus such that the ends of the tubes just projected into the gastric lumen. The catheter leading from the pylorus led outward into the right abdominal wall through a side opening.
After thorough rinsing (about 50-100 ml), warm (37° C.) physiological NaCl solution was continuously passed through the stomach (0.5 ml/min, ph 6.8-6.9; Braun-Unita I). The pH (pH meter 632, glass electrode EA 147; φ=5 mm, Metrohm) and, by titration with a freshly prepared 0.01N NaOH solution to ph 7 (Dosimat 665 Metrohm), the secreted HCl were determined in the effluent in each case collected at an interval of 15 minutes.
The gastric secretion was stimulated by continuous infusion of 1 μg/kg (=1.65 ml/h) of i.v. pentagastrin (left femoral vein) about 30 min after the end of the operation (i.e. after determination of 2 preliminary fractions). The substances to be tested were administered intraduodenally in a 2.5 ml/kg liquid volume 60 min after the start of the continuous pentagastrin infusion.
The body temperature of the animals was kept at a constant 37.8-38° C. by infrared irradiation and heat pads (automatic, stepless control by means of a rectal temperature sensor).

Row | Structure (SMILES) | Inhibition of acid secretion (%) [1] [%] | melting point [°C]
1 | Cc1nc2c(O[C@@H]3c4ccccc4CC[C@H]3O)cc(C(=O)N(C)C)cn2c1C.Cl (relative stereo) [Example 15, 6-(N,N-Dimethylamino-carbonyl)-2,3-dimethyl-8-(trans-1,2,3,4-tetrahydro-2-hydroxy-1-naphthalenyloxy)-imidazo[1,2-a]pyridine hydrochloride] | >30 | 129
2 | COC(=O)c1cc(N[C@@H]2c3ccccc3C[C@H]2O)c2nc(C)c(C)n2c1 (relative stereo) [Example 1, Methyl 8-(trans-2,3-dihydro-2-hydroxy-1-indenylamino)-2,3-dimethyl-imidazo[1,2-a]pyridine-6-carboxylate] |  | 261 to 262
3 | Cc1nc2c(O[C@H]3c4ccccc4C[C@@H]3O)cc(C(=O)N(C)C)cn2c1C [Example 14, 8-[(1S,2S)-2,3-Dihydro-2-hydroxy-1-indenyloxy)-6-(N,N-dimethylamino-carbonyl)-2,3-dimethyl-imidazo[1,2-a]pyridine] | >30 | 
4 | COc1cccc2c1[C@@H](Oc1cc(C(=O)N(C)C)cn3c(C)c(C)nc13)[C@H](O)C2 (relative stereo) [Example 16, 8-(trans-2,3-Dihydro-2-hydroxy-7-methoxy-1-indenyloxy)-6-(N,N-dimethylamino-carbonyl)-2,3-dimethyl-imidazo[1,2-a]pyridine] | >30 | 
5 | COCc1cc(O[C@@H]2c3ccccc3C[C@H]2O)c2nc(C)c(C)n2c1 (relative stereo) [Example 11, 8-(trans-2,3-Dihydro-2-hydroxy-1-indenyloxy)-6-methoxymethyl-2,3-dimethyl-imidazo[1,2-a]pyridine] | >30 | 142 to 143
6 | Cc1nc2c(O[C@@H]3c4ccccc4C[C@H]3O)cc(C(=O)O)cn2c1C (relative stereo) [Example 8, 8-(trans-2,3-Dihydro-2-hydroxy-1-indenyloxy)-2,3-dimethyl-imidazo[1,2-a]pyridine-6-carboxylic acid] |  | 229 to 231
7 | Cc1cccc2c1[C@@H](Oc1cc(C(=O)N(C)C)cn3c(C)c(C)nc13)[C@H](O)C2 [Example 17] | >30 | 
8 | Cc1nc2c(O[C@@H]3c4ccccc4C[C@H]3O)cc(C(=O)N(C)C)cn2c1C (relative stereo) [Example 9, 8-(trans-2,3-Dihydro-2-hydroxy-1-indenyloxy)-6-(N,N-dimethylamino-carbonyl)-2,3-dimethyl-imidazo[1,2-a]pyridine] | >30 | 
9 | Cc1nc2c(N[C@@H]3c4ccccc4C[C@H]3O)cc(C(=O)O)cn2c1C (relative stereo) [Example 2, 8-(trans-2,3-Dihydro-2-hydroxy-1-indenylamino)-2,3-dimethyl-imidazo[1,2-a]pyridine-6-carboxylic acid] |  | 246 to 249
